Results on one compound are retold here after patent publication US3997506A (priority 1974, dated 1976).

Like-named read-outs stand apart in the source and are kept apart here.

In data set [1] the test system is human leucocytes. The conditions noted are these: Table 11; for Count of leucocytes after 72 hours: Culture II.
Method: Contrary to the previous experiment in which different volumes of a solution of a given concentration have been added, in this experiment the various concentrations were prepared through dilution of a concentrated solution in order to add a same volume of methanol to each culture.
A further data set is described as follows: in vitro. It is filed as cell-based, human. The conditions noted are these: human, leucocytes, Culture II, read-out: % of dead cells. The procedure: (§1) The cytotoxicity has been investigated on human leucocytes by means of the viability test with Trypan blue.
(§2) a. In a first experimentation cultures of leucocytes of a voluntary […] were prepared and caused to undergo incubation with phytohemagglutinin (PHA) and with different concentrations of colchicine or of its derivative (C1 = 2.5 μg/ml of culture, C3 = 10 μg/ml, C5 = 30 μg/ml, C6 = 50 μg/ml). Leucocytes only containing PHA served as controls.
(§3) After 3, 42, 68 and 72 hours of incubation a sample of each culture was contacted by a drop of Trypan blue and laid on a slide of a microscope. Then took place the counting of the dead cells (those with assumed an […] colour) and of all the cells present on the slide in order to obtain the ratio of the number of dead cells to the total number of cells. The results expressed as a rate in per cent are shown in the accompanying table 8.
(§4) b. After the experimentation which has just been described, the study of cytotoxicity has been continued with two other samples of human leucocytes still by means of the viability test with Trypan blue.
(§5) C1 = 2.5 μg/ml of culture
(§6) C6 = 50 μg/ml of culture;
(§7) and for the carboxy-1-adamantane fraction to:
(§8) C3 = 4.5 μg/ml of culture
(§9) C6 = 22.5 μg/ml of culture.
(§10) Leucocytes only containing phytohemagglutinin and others containing phytohemagglutinin and 50 μl of methanol served as controls.
(§11) The percentage of dead cells was determined after different numbers of hours of incubation.

Data set [2] has as its system human leucocytes. Briefly: in vitro. The conditions noted are these: Cultures I and II. It counts as cell-based. On the procedure:
as §1, §2, §3, §4, §5, §6, §7, §8, §9, §10, §11

Setting [3] is: carboxy-1-adamantane C3 = 4.5 μg/ml.
Where [4] appears, read: carboxy-1-adamantane C6 = 22.5 μg/ml.

Consider `O=C(O)C12CC3CC(CC(C3)C1)C2` [carboxy-1-adamantane], for which the “Count of leucocytes after 72 hours” value is recorded as 215,000 in the data set on human leucocytes [1] (setting [3]) and 230,000 in the data set on human leucocytes [1] (setting [4]). Also, in the data set on human leucocytes [1] (very approximative), the “number of leucocytes in absence or presence of substance (in words)” value was “remain substantially the same”. Besides, the cytotoxicity at 23 h in “in vitro” (setting [3]) stood at 18%; in “in vitro” (setting [4]), 14%. In addition, the cytotoxicity at 46 h in the data set “in vitro” (setting [3]) was determined as 12%; in the data set “in vitro” (setting [4]), 10%. Further, the cytotoxicity at 72 h in “in vitro” (setting [3]) and in the data set “in vitro” (setting [4]) was 25% each time. Moreover, in the data set with human leucocytes [2], the “cytotoxicity, cultures I and II (in words)” value is recorded as “no effect until 46 hours of incubation”.
